Measurements from ChEMBL document CHEMBL2016507, “Prospective acetylcholinesterase inhibitory activity of indole and its analogs” (Bioorg Med Chem Lett, 2012).
pIC50: −log10 of the molar value.

What was measured:
[1] = biological target: Acetylcholinesterase (Electrophorus electricus) (UniProt O42275); assay: Inhibition of electric eel AChE using acetylcholine iodide as substrate at 6.2 X 10^-4 M measured every 5 sec for 2 mins by Ellman's method
Acetylcholinesterase [2] = biological target: T1, Acetylcholinesterase (Homo sapiens, UniProt P22303); assay: Inhibition of AChE by Ellman's method
Acetylcholinesterase [3] = biological target: Acetylcholinesterase (Electrophorus electricus, UniProt O42275); assay: Inhibition of electric eel AChE using acetylcholine iodide as substrate measured every 5 sec for 2 mins by Ellman's method
Acetylcholinesterase [4] = biological target: T1, Acetylcholinesterase; assay: Inhibition of human AChE by Ellman's method

Sequence of Acetylcholinesterase (Electrophorus electricus, UniProt O42275) (O42275 whole entry): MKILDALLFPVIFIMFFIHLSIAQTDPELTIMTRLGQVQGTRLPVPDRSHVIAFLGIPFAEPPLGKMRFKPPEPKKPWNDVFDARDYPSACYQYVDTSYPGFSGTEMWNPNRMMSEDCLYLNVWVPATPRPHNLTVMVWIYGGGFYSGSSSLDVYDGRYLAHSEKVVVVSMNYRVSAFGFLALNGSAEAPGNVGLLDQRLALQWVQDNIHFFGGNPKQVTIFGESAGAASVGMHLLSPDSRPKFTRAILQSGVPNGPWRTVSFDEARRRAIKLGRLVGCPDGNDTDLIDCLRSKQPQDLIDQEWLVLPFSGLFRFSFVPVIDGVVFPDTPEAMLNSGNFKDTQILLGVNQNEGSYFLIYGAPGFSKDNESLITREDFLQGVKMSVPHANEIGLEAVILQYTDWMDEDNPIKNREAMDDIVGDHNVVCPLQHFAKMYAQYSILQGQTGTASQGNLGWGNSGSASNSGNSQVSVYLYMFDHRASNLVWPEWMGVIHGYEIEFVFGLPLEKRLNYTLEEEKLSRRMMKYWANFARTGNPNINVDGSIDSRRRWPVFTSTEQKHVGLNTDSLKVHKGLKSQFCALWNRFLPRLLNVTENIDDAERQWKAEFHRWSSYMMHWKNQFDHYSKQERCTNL
T1 sequence (P22303 whole entry): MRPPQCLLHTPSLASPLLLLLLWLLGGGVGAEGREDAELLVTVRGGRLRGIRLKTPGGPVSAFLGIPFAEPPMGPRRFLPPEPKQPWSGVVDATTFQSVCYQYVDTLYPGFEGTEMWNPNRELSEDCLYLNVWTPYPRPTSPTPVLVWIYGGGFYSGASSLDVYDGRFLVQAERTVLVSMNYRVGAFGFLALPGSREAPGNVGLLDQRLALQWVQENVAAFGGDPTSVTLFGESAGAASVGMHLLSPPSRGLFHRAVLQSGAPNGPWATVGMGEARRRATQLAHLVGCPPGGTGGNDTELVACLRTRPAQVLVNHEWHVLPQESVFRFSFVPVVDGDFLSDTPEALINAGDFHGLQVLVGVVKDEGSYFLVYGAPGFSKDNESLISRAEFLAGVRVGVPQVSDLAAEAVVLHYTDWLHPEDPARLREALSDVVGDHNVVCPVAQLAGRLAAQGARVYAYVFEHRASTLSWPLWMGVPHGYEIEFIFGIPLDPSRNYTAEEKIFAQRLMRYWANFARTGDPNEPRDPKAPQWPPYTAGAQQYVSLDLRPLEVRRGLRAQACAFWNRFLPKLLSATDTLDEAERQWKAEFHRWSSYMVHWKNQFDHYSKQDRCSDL
Sequence of Acetylcholinesterase (Electrophorus electricus) (O42275 24-633 limits assumed): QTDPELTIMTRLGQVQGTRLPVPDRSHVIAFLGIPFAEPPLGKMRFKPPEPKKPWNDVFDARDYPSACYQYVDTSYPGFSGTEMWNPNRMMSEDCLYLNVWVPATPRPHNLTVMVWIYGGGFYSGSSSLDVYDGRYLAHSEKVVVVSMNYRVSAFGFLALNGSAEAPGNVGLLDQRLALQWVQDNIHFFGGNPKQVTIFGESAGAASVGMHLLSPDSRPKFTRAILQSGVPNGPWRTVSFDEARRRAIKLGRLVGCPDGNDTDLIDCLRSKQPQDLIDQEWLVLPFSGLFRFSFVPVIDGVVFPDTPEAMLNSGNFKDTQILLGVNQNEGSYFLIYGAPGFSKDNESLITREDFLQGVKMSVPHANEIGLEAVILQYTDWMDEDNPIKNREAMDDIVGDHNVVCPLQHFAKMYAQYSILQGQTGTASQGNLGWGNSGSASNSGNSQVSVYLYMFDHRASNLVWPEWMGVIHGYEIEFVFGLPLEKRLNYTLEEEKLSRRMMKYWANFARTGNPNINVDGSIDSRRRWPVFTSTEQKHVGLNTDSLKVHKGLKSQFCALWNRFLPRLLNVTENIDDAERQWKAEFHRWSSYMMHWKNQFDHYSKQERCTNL

## O=C(O)c1ccc2cc[nH]c2c1
[1]
  inhibition: 28.5%

## CC[C@H]1C[C@@H]2CN3CCc4c([nH]c5cc([C@H]6C[C@H]7C(C(=O)OC)[C@H](Cc8c6[nH]c6ccccc86)N(C)C[C@H]7CC)ccc45)[C@](C(=O)OC)(C2)[C@H]13 (stereo partly drawn)
Acetylcholinesterase [2]
  pIC50: 7.15

## CC[C@H]1C[C@@H]2C[C@H]3c4[nH]c5cc([C@@H]6C[C@H]7C(C(=O)OC)[C@@H](Cc8c6[nH]c6ccccc86)N(C)C[C@H]7CC)ccc5c4CCN(C2)[C@@H]13 (stereo partly drawn)
Acetylcholinesterase [2]
  pIC50: 6.64

## Cc1nccc2c1[nH]c1ccccc12 [HARMAN]
Acetylcholinesterase [3]
  pIC50: 4.68

## O=C(O)c1ccc2[nH]ccc2c1
[1]
  inhibition: 29.1%

## O=C(O)c1cccc2cc[nH]c12
[1]
  inhibition: 23.4%

## CC1=NCCc2c1[nH]c1cc(O)ccc21 [HARMALOL]
Acetylcholinesterase [3]
  pIC50: 4.95

## COc1ccc2c3c([nH]c2c1)C(C)=NCC3 [HARMALINE]
Acetylcholinesterase [4]
  pIC50: 4.63
Acetylcholinesterase [3]
  pIC50: 5.31

## COc1ccc2c(ccc[n+]2C)c1
Acetylcholinesterase [4]
  pIC50: 4.30
Acetylcholinesterase [3]
  pIC50: 5.12

## COc1ccc2[nH]c3c(c2c1)CCNC3
Acetylcholinesterase [3]
  pIC50: 3.64

## O=C(O)c1cccc2[nH]ccc12
[1]
  inhibition: 36.8%

## c1ccc2c3c([nH]c2c1)CNCC3 [TRYPTOLINE]
Acetylcholinesterase [3]
  pIC50: 4.01

## Cc1nccc2c1[nH]c1cc(O)ccc12
Acetylcholinesterase [3]
  pIC50: 5.10

## COc1ccc2c(ccc[n+]2Cc2ccccc2)c1
Acetylcholinesterase [4]
  pIC50: 5.28
Acetylcholinesterase [3]
  pIC50: 5.61

## COc1ccc2c(c1)[nH]c1c(C)nccc12 [HARMINE]
Acetylcholinesterase [3]
  pIC50: 4.64
